In one data set the test system is Coturnix japonica. The note with it: reproduction developmental.
The next data set deals with Bibionidae. The following applies: chronic/long-term; duration: 28 days.
In the next data set the test system is Mus musculus. The following applies: chronic; duration: 2 years; hematological.
Another data set deals with Oncorhynchus mykiss. The following applies: chronic/long-term; duration: 21 days; growth.
For a further data set, the system named is Oryctolagus sp. The following applies: reproduction developmental; mortality.
The test system of a further data set is Daphnia magna. The note with it: chronic/long-term; duration: 21 days; reproduction.
In another data set the test system is Typhlodromus pyri. The following applies: not reported; mortality.
A further data set has as its system Tagia sp. The following applies: chronic/long-term; duration: 56 days.

Drawing on EPA's ToxValDB 9.5 (doi:10.2903/j.efsa.2008.119r), this text covers NOEC, NOAEL and LEL for 1 compound.

The NOAEL is the highest tested level that showed no adverse finding. For the compound `COC(=O)c1cc(Oc2ccc(Cl)cc2Cl)ccc1[N+](=O)[O-]` [Bifenox], the NOEC with Coturnix japonica turned out to be 290 mg/kg-day; in the data set on Bibionidae, 0.015 mg/L; with Oncorhynchus mykiss, 0.0091 mg/L; in the data set on Daphnia magna it was 0.00015 mg/L; with Tagia sp., 5.1 mg/kg. Also, the NOAEL in the data set on Mus musculus is 30 mg/kg-day; with Oryctolagus sp., 50 mg/kg-day; in the data set with Rattus norvegicus (chronic), 16 mg/kg-day; with Rattus norvegicus (reproduction developmental, reproduction) it was 44.5 mg/kg-day. This compound also registered an LEL with Typhlodromus pyri of 720 g/ha.
